Results published in patent US9505749B2, “Quinazolinone compounds and derivatives thereof” (AMGEN INC., priority 2012, dated 2016).
Like-named read-outs stand apart in the source and are kept apart here.

Key:
[1] = system: Axin2 accumulation in SW480 cells; test: Axin2 384 immunofluorescence assay; type: cell-based; conditions: Homo sapiens, read-out: Axin2 384 IF EC50
[2] = system: total β-catenin in SW480 colorectal cells; test: Total β-catenin MSD 96-well plate assay for SW480 cells; conditions: Homo sapiens, SW480, read-out: SW480-Total beta-catenin (TBC) IC50 IP
PARP2 = PARP2 (Homo sapiens (Human), UniProt Q9UGN5); test: PARP2 biochemical assay (BPS kit)
PARP2, sequence (Q9UGN5 whole entry): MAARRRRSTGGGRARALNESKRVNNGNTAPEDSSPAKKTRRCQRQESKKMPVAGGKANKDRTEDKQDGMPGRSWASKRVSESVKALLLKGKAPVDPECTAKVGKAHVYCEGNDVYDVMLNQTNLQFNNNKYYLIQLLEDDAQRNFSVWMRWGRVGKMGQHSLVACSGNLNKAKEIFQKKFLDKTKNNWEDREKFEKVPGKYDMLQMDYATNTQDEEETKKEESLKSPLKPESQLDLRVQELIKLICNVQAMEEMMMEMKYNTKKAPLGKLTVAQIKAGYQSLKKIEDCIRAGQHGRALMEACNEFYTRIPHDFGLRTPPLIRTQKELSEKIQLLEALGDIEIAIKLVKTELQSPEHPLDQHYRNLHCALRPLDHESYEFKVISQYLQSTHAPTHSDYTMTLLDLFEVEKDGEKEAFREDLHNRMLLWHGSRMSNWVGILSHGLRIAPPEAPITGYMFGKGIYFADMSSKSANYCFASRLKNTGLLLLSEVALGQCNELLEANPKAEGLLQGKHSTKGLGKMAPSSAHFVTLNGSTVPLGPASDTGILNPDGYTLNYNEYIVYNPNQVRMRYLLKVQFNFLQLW

PARP1 = PARP1 (Homo sapiens (Human), UniProt P09874); test: PARP1 biochemical assay (Trevigen kit)
PARP1, sequence (P09874 whole entry): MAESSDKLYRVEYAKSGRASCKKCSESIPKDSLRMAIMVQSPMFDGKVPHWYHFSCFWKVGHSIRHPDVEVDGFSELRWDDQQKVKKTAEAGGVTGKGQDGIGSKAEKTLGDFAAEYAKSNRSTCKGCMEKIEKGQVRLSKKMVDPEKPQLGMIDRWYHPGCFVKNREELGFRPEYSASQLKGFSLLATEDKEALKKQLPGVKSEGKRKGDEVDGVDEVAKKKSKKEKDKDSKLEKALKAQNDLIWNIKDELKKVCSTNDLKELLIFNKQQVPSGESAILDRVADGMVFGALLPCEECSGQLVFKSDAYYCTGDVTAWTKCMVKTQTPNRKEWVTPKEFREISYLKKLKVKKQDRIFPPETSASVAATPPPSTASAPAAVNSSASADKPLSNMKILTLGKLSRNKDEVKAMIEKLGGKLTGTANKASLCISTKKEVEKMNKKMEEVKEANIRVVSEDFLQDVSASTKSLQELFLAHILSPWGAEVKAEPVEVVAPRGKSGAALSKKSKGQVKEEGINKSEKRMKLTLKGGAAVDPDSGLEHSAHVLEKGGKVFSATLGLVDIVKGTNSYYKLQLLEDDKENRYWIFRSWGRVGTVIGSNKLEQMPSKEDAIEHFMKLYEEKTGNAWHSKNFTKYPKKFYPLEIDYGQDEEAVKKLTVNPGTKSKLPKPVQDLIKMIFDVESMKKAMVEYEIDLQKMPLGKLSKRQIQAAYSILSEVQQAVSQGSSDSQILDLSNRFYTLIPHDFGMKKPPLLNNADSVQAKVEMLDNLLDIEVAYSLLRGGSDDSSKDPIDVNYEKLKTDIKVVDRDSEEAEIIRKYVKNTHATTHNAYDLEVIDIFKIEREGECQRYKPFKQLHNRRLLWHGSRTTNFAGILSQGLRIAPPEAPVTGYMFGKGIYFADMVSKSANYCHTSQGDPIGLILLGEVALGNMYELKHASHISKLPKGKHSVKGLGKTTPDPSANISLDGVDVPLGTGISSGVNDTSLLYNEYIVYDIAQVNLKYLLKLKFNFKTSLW
Text: PARP1 biochemical assay was purchased as a kit from Trevigen (cat.#4676-096-K) and used per manufacturers recommendations.

**Q.** For `O=C1Nc2cc(Cl)ccc2C1C1CCN(C(=O)CCCc2nc3ccccc3c(=O)[nH]2)CC1` (racemic) [Example 76, 2-(4-(4-((3S)-6-chloro-2-oxo-2,3-dihydro-1H-indol-3-yl)-1-piperidinyl)-4-oxobutyl)-4(3H)-quinazolinone trifluoroacetic acid and 2-(4-(4-((3R)-6-chloro-2-oxo-2,3-dihydro-1H-indol-3-yl)-1-piperidinyl)-4-oxobutyl)-4(3H)-quinazolinone trifluoroacetic acid], which EC50 ([1]; SW480, 24 h) is on record?
**A.** 2950 nM

**Q.** What about the IC50 [2] of the same compound?
**A.** 3020 nM

**Q.** What does the source list for `COc1ccc2c(c1)[nH]c(=O)n2C1CCN(C(=O)CCCc2nc3ccccc3c(=O)[nH]2)CC1` [Example 8, 2-(4-(4-(5-methoxy-2-oxo-2,3-dihydro-1H-benzimidazol-1-yl)-1-piperidinyl)-4-oxobutyl)-4(3H)-quinazolinone]?
**A.** EC50 ([1]; SW480 cells, 24 hours): 81.8 nM; IC50 [2]: 45.4 nM

**Q.** What does the source list for `O=C(CCCc1nc2ccccc2c(=O)[nH]1)N[C@H]1CC[C@H](c2nnc(-c3ccccc3)o2)CC1` [Example 10, 4-(4-oxo-3,4-dihydro-2-quinazolinyl)-N-(trans-4-(5-phenyl-1,3,4-oxadiazol-2-yl)cyclohexyl)butanamide]?
**A.** EC50 ([1]; SW480 cells, 24 hours): 73.9 nM; IC50 [2]: 16.7 nM

**Q.** For `O=C(CCc1cc(=O)n2ccccc2n1)N[C@H]1CC[C@H](c2nnc(-c3ccccc3)o2)CC1` [Example 38, 3-(4-oxo-4H-pyrido[1,2-a]pyrimidin-2-yl)-N-((1r,4r)-4-(5-phenyl-1,3,4-oxadiazol-2-yl)cyclohexyl) propanamide], which EC50 ([1]; SW480 cells, 24 hours) is on record?
**A.** 8190 nM

**Q.** What about the IC50 [2] of the same compound?
**A.** 1430 nM

**Q.** How did the IC50 [2] turn out when `O=C(CCCc1nc2ccccc2c(=O)[nH]1)N[C@H]1CC[C@H](Oc2ccccc2)C1` [Example 65, 4-(4-oxo-3,4-dihydroquinazolin-2-yl)-N-((1S,3S)-3-phenoxycyclopentyl)butanamide+4-(4-oxo-3,4-dihydroquinazolin-2-yl)-N-((1R,3R)-3-phenoxycyclopentyl)butanamide] was run?
**A.** > 10000 nM

**Q.** Which results are given for `O=C(CCCc1nc2ccccc2c(=O)[nH]1)N1CCN(c2noc3ccccc23)CC1` [Example 71, 2-(4-(4-(benzo[d]isoxazol-3-yl)piperazin-1-yl)-4-oxobutyl)quinazolin-4(3H)-one trifluoroacetic acid]?
**A.** EC50 ([1]; SW480 cells, 24 hours): 4170 nM; IC50 [2]: 3440 nM

**Q.** For `O=C(CCCc1nc2ccccc2c(=O)[nH]1)N1CCC(c2noc3ccc(F)cc23)CC1` [Example 72, 2-(4-(4-(5-fluorobenzo[d]isoxazol-3-yl)piperidin-1-yl)-4-oxobutyl)quinazolin-4(3H)-one trifluoroacetic acid], which EC50 ([1]; SW480 cells, 24 hours) is on record?
**A.** 630 nM

**Q.** What about the IC50 [2] of the same compound?
**A.** 1130 nM

**Q.** For `O=C(CCCc1nc2ccccc2c(=O)[nH]1)N[C@H]1CC[C@H](n2c(=O)[nH]c3ccccc32)CC1` [Example 73, N-((1r,4r)-4-(2-oxo-2,3-dihydro-1H-benzo[d]imidazol-1-yl)cyclohexyl)-4-(4-oxo-3,4-dihydroquinazolin-2-yl)butanamide trifluoroacetic acid], which EC50 ([1]; SW480, 24 h) is on record?
**A.** 29.6 nM

**Q.** And the IC50 [2]?
**A.** 21 nM

**Q.** Which EC50 ([1]; SW480 cells, 24 hours) does the source give for `O=C(CCCc1nc2ccccc2c(=O)[nH]1)N1CCC(n2nnc3ccccc32)CC1` [Example 75, 2-(4-(4-(1H-benzo[d][1,2,3]triazol-1-yl)piperidin-1-yl)-4-oxobutyl)quinazolin-4(3H)-one trifluoroacetic acid] here?
**A.** 383 nM

**Q.** What about the IC50 [2] of the same compound?
**A.** 623 nM

**Q.** Which results are given for `O=C(CCc1nc2ccccc2c(=O)[nH]1)N[C@H]1CC[C@H](n2c(=O)oc3ccccc32)CC1` [Example 80]?
**A.** EC50 ([1]; SW480 cells, 24 hours): 225 nM; IC50 [2]: 42.3 nM

**Q.** Which EC50 ([1]; SW480 cells, 24 hours) does the source give for `O=C(CCc1nc2ncccc2c(=O)[nH]1)N[C@H]1CC[C@H](c2nnc(-c3ccccc3)o2)CC1` [Example 81, 3-(4-oxo-3,4-dihydropyrido[2,3-d]pyrimidin-2-yl)-N-((1r,4r)-4-(5-phenyl-1,3,4-oxadiazol-2-yl)cyclohexyl) propanamide] here?
**A.** 8750 nM

**Q.** What about the IC50 [2] of the same compound?
**A.** 1950 nM

**Q.** What about the IC50 (PARP2) of the same compound?
**A.** 8450 nM

**Q.** What does the source list for `O=C(CCc1nc2c(c(=O)[nH]1)CCCN2)N[C@H]1CC[C@H](c2nnc(-c3ccccc3)o2)CC1` [Example 88, 3-(4-oxo-3,4,5,6,7,8-hexahydropyrido[2,3-d]pyrimidin-2-yl)-N-((1r,4r)-4-(5-phenyl-1,3,4-oxadiazol-2-yl)cyclohexyl)propanamide]?
**A.** IC50 [2]: 1020 nM; IC50 (PARP2): 530 nM; IC50 (PARP1): 3500 nM

**Q.** Which EC50 ([1]; SW480 cells, 24 hours) does the source give for `O=C(CSc1nc2ccccc2c(=O)[nH]1)N[C@H]1CC[C@H](Oc2ccc(F)cc2)CC1` [Example 99, N-((1r,4r)-4-(4-fluorophenoxy)cyclohexyl)-2-((4-oxo-3,4-dihydroquinazolin-2-yl)thio) acetamide] here?
**A.** 2160 nM

**Q.** What about the IC50 [2] of the same compound?
**A.** 2420 nM

**Q.** Which EC50 ([1]; SW480 cells, 24 hours) does the source give for `O=C(CCSc1nc2ccccc2c(=O)[nH]1)N[C@H]1CC[C@H](Oc2ccc(F)cc2)CC1` [Example 100, N-((1r,4r)-4-(4-fluorophenoxy)cyclohexyl)-3-((4-oxo-3,4-dihydroquinazolin-2-yl)thio) propanamide] here?
**A.** 22.7 nM

**Q.** What about the IC50 [2] of the same compound?
**A.** 16.7 nM

**Q.** And the IC50 (PARP2)?
**A.** 4950 nM

**Q.** What does the source list for `O=C(CCSc1nc2ccccc2c(=O)[nH]1)N[C@H]1CC[C@H](Oc2ccc(Cl)cc2)CC1` [Example 105, N-((1r,4r)-4-(4-chlorophenoxy)cyclohexyl)-3-((4-oxo-3,4-dihydroquinazolin-2-yl)thio) propanamide]?
**A.** EC50 ([1]; SW480 cells, 24 hours): 35.9 nM; IC50 [2]: 20 nM; IC50 (PARP1): > 85000 nM

**Q.** Which results are given for `O=C(CCSc1nc2ccccc2c(=O)[nH]1)N[C@H]1CC[C@H](c2nnc(-c3ccncc3)o2)CC1` [Example 124, 3-((4-oxo-3,4-dihydroquinazolin-2-yl)thio)-N-(trans-4-(5-(pyridin-4-yl)-1,3,4-oxadiazol-2-yl)cyclohexyl)propanamide]?
**A.** EC50 ([1]; SW480 cells, 24 hours): 0.666 nM; IC50 [2]: 1.92 nM

**Q.** How did the IC50 (PARP1) turn out when `O=C(CCc1nc2ccccc2c(=O)[nH]1)N[C@H]1CC[C@H](c2nnc(-c3ccccc3F)o2)CC1` [Example 126, N-((1r,4r)-4-(5-(2-fluorophenyl)-1,3,4-oxadiazol-2-yl)cyclohexyl)-3-(4-oxo-3,4-dihydroquinazolin-2-yl)propanamide] was run?
**A.** 5100 nM

**Q.** `O=C(CCc1nc2ccccc2c(=O)[nH]1)N[C@H]1CC[C@H](c2nnc(-c3ccncc3)o2)CC1` [Example 132, 3-(4-oxo-3,4-dihydroquinazolin-2-yl)-N-((1r,4r)-4-(5-(pyridin-4-yl)-1,3,4-oxadiazol-2-yl)cyclohexyl)propanamide] was tested. Which IC50 [2] did it give?
**A.** 488 nM

**Q.** What about the IC50 (PARP2) of the same compound?
**A.** 2640 nM

**Q.** And the IC50 (PARP1)?
**A.** 2450 nM

**Q.** Which results are given for `O=C(CCc1nc2ccccc2c(=O)[nH]1)N[C@H]1CC[C@H](c2nnc(-c3ncccn3)o2)CC1` [Example 133, 3-(4-oxo-3,4-dihydroquinazolin-2-yl)-N-((1r,4r)-4-(5-(pyrimidin-2-yl)-1,3,4-oxadiazol-2-yl)cyclohexyl)propanamide]?
**A.** IC50 [2]: > 10000 nM; IC50 (PARP2): 1870 nM; IC50 (PARP1): 4620 nM

**Q.** For `O=C(CCc1nc2ccccc2c(=O)[nH]1)N[C@H]1CC[C@H](c2nnc(C3CCOCC3)o2)CC1` [Example 135, 3-(4-oxo-3,4-dihydroquinazolin-2-yl)-N-((1r,4r)-4-(5-(tetrahydro-2H-pyran-4-yl)-1,3,4-oxadiazol-2-yl)cyclohexyl)propanamide], which IC50 [2] is on record?
**A.** > 10000 nM

**Q.** `O=C(CCc1nc2ccccc2c(=O)[nH]1)N[C@H]1CC[C@H](c2nnc(-c3ccc(Cl)cc3)o2)CC1` [Example 141, N-((1r,4r)-4-(5-(4-chlorophenyl)-1,3,4-oxadiazol-2-yl)cyclohexyl)-3-(4-oxo-3,4-dihydroquinazolin-2-yl)propanamide] was tested. Which EC50 ([1]; SW480 cells, 24 hours) did it give?
**A.** 228 nM

**Q.** What about the IC50 [2] of the same compound?
**A.** 118 nM

**Q.** And the IC50 (PARP2)?
**A.** 677 nM
